Legend:
Format in all cases: biochemical
recombinant human DPP7 = target: T1, recombinant human DPP7 (Homo sapiens, UniProt Q9UHL4); test: DPP7 inhibition, fluorogenic substrate Lys-Pro-AMC; conditions: recombinant human DPP7
T1 construct: purchased R&D Systems
In short: (§1)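 Enzyme per reaction: 50 ng DPP9, 20 ng DPP8, 10 ng each DPP7 and PREP. Compounds were serially diluted (8 points, up to 0.5% DMSO) and incubated at 25 °C.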

recombinant human PREP = target: T2, recombinant human PREP (Homo sapiens, UniProt P48147); test: PREP inhibition, fluorogenic substrate Z-Gly-Pro-AMC; conditions: Inhibitory Activity (IC50, nM) PREP, recombinant human PREP
T2 construct: purchased R&D System
T2 sequence (P48147 1-710): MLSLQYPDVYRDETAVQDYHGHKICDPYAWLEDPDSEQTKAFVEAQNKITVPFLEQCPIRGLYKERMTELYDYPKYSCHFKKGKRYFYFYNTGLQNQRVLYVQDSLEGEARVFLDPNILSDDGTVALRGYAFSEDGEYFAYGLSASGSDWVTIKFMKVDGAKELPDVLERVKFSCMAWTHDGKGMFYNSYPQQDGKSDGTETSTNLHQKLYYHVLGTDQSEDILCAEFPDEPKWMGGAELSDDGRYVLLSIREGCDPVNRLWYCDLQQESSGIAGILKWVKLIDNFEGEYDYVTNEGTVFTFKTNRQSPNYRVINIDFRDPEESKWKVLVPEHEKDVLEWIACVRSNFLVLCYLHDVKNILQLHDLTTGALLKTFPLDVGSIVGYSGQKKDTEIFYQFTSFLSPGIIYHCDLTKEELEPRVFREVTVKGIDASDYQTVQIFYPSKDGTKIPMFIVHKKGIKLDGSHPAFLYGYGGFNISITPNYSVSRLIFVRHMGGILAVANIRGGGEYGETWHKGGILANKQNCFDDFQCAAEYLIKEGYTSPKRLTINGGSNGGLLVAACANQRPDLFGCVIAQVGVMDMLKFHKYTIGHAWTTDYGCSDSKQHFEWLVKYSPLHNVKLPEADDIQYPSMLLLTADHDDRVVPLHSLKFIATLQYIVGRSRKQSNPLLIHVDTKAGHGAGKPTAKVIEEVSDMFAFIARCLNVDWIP
Procedure: The compounds according to the present technology were evaluated in terms of the inhibitory effect on the activity of dipeptidyl peptidases including FAP by using a substrate producing fluorescent substances upon enzymatic decomposition. The test was conducted at 25° C. to get a final reaction volume of 100 μL in a 96 black well plate. […] Briefly, the test compounds were dissolved in dimethyl sulfoxide (DMSO) at a concentration of 20 mM and then subjected to serial dilution, thereby creating an 8 point curve. As for the control group, a 6 point curve created by serial dilution of Talabostat in the same buffer solution was used. Fluorescence intensity was measured using a microplate reader (Flexstation3, Molecular Devices) under the wavelength condition exciting at 380 nm and reading the emission at 460 nm. The inhibitory effect of the test compounds was measured as a decrease (%) in the signal rate as compared to the control group without any inhibitor. Data was fixed to a logistic model with four variables and IC50 value was calculated using GraphPad Prism program. As for recombinant human DPP4 (R&D Systems), 25 mM tris (pH 8.0) buffer as a buffer solution and H-Gly-Pro-AMC (Bachem) as a substrate were used. As for recombinant human DPP7 (R&D Systems), 25 mM MES (pH 6.0) buffer as a buffer solution and Lys-Pro-AMC (Bachem) as a substrate were used. As for recombinant human DPP8 (PBS Bioscience), as a buffer solution, a 10 mM tris (pH 7.4) buffer comprising 10 mM of magnesium chloride and 0.05% of Tween 20, and Z-Ala-Pro-AMC (BPS Bioscience) as a substrate were used. As for recombinant human DPP9 (R&D Systems), a 25 mM tris (pH 8.0) buffer as a buffer solution and H-Gly-Pro-AMC (Bachem) as a substrate were used. As for recombinant human PREP (R&D System), as a buffer solution, a 25 mM tris (pH 7.5) buffer comprising 250 mM sodium chloride and 2.5 mM DTT (Dithiolthreitol), and Z-Gly-Pro-AMC (Bachem) as a substrate were used. The evaluation was made by using 10 ng of DPP4, PDD7, and PREP, 20 ng of DPP8, and 50 ng of DPP9 based on the final reaction. In the evaluation of DPP4, the test compounds were subjected to serial dilution in a buffer under the condition containing up to 0.1% of DMSO. In the evaluation of DPP7, DPP8, DPP9, and PREP, the test compounds were subjected to serial dilution in each buffer under the condition containing up to 0.5% of DMSO.

DPP4 = DPP4 (Homo sapiens, UniProt P27487); test: DPP4 inhibition, fluorogenic substrate H-Gly-Pro-AMC; design: purchased R&D Systems; conditions: recombinant human DPP4
Sequence of DPP4 (P27487 whole entry): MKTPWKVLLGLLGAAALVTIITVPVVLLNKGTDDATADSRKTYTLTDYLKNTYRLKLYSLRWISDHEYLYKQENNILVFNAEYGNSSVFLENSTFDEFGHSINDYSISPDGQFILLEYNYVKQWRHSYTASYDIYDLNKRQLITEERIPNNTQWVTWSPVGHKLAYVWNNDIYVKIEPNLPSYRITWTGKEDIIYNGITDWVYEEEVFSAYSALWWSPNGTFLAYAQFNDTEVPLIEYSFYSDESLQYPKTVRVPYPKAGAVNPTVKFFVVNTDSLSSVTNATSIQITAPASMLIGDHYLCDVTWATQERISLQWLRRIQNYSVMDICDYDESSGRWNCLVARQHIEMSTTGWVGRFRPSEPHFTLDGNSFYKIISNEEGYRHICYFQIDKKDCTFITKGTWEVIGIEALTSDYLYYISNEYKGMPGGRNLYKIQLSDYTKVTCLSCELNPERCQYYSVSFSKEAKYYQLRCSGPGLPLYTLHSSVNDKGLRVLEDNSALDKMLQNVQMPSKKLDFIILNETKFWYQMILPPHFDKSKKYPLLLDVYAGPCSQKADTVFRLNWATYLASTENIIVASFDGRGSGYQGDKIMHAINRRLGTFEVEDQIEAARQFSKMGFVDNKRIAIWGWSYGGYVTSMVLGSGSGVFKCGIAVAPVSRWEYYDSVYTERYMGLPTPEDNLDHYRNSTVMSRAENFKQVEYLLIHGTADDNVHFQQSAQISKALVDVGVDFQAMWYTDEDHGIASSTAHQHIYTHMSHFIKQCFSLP

recombinant human DPP9 = target: T3, recombinant human DPP9 (Homo sapiens, UniProt Q86TI2); test: DPP9 inhibition, fluorogenic substrate H-Gly-Pro-AMC; conditions: recombinant human DPP9
T3 construct: purchased R&D Systems
T3 sequence (Q86TI2 whole entry): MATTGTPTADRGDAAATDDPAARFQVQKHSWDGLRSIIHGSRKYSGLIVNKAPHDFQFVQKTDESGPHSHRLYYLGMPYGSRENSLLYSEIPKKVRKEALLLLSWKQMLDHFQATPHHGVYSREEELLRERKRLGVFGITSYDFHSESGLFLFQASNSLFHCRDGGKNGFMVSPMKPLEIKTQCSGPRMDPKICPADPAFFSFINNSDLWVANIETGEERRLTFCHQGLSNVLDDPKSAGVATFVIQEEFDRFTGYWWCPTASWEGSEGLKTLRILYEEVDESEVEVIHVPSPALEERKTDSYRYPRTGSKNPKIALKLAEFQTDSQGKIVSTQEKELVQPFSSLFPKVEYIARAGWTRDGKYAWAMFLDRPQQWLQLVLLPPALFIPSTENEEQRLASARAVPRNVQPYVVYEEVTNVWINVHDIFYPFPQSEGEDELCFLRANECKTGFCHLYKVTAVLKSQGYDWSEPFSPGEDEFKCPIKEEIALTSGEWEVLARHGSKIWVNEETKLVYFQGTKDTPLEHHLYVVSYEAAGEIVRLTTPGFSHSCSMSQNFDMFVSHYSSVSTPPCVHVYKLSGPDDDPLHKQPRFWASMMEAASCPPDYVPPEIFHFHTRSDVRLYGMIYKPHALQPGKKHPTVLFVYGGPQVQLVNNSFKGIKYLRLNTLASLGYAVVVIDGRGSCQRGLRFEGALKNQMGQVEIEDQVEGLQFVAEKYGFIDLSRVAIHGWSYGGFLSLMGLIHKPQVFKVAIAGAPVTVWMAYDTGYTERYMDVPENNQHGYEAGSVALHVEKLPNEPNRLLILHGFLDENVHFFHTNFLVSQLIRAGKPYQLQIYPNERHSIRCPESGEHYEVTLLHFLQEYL
In short: as §1

Recombinant human FAP = target: T4, Recombinant human FAP (Homo sapiens, UniProt Q12884); test: FAP FRET assay, FGF21-sequence FRET peptide substrate; conditions: FRET peptide with human FGF21 sequence, 6 μM, 37° C.
T4 construct: purchased R&D systems
T4 sequence (Q12884 1-760): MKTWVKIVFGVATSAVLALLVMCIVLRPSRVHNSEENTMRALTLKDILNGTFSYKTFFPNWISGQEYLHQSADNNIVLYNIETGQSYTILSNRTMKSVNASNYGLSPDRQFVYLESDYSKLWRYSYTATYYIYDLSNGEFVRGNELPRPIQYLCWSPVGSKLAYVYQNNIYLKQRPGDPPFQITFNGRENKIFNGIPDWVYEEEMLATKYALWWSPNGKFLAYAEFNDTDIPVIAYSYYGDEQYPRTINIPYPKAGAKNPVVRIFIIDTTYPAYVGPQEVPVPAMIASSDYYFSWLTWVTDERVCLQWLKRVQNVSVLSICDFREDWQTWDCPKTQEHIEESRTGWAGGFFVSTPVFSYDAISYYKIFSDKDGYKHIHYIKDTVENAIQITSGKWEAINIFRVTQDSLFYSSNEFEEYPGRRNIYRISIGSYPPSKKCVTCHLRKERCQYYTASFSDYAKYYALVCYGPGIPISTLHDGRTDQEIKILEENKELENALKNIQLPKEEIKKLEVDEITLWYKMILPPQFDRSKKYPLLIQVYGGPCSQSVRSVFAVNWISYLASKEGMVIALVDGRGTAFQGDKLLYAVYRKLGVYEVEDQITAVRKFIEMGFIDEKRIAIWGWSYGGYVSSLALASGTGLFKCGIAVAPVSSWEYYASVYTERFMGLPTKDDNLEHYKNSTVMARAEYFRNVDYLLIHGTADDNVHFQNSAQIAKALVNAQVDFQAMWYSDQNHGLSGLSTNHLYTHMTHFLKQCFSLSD
In short: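 Recombinant human FAP, 10 ng per reaction, in 50 mM HEPES pH 7.2 with 150 mM NaCl, 0.1 mg/ml BSA, 1 mM EDTA; HyLite Fluor 488/QXL 520 FRET peptide of human FGF21 sequence at 6 μM final, ≤0.1% DMSO, 37° C. IC50 from 8-point curves by four-parameter logistic fit.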

SMILES | IC50 (recombinant human DPP7) [nM] | IC50 (recombinant human PREP) [nM] | IC50 (DPP4) [nM] | IC50 (recombinant human DPP9) [nM] | IC50 (Recombinant human FAP) [nM]
COc1cnc2cccc(N[C@@H]3CCN(CC(=O)N4C[C@@H](F)C[C@H]4C#N)C3)c2c1 [Example 205, (2S,4S)-4-fluoro-1-[2-[(3R)-3-[(3-methoxy-5-quinolyl)amino]pyrrolidin-1-yl]acetyl]pyrrolidine-2-carbonitrile] | 1760 | 7500 | 796 | 3040 | 2.6
Cc1cnc2cccc(N[C@@H]3CCN(CC(=O)N4CCC[C@H]4C#N)C3)c2c1 [Example 208, (2S)-1-[2-[(3R)-3-[(3-methyl-5-quinolyl)amino]pyrrolidin-1-yl]acetyl]pyrrolidine-2-carbonitrile] | 1370 | 12000 | 6510 | 19200 | 1.7
N#C[C@@H]1C[C@H](F)CN1C(=O)CN1CC[C@@H](Nc2ccc3nc(C(F)(F)F)ccc3c2)C1 [Example 210, (2S,4S)-4-fluoro-1-[2-[(3R)-3-[[2-(trifluoromethyl)-6-quinolyl]amino]pyrrolidin-1-yl]acetyl]pyrrolidine-2-carbonitrile] | 281 | 1480 | 2700 | 1300 | 3.5
Cc1cc(N[C@@H]2CCN(CC(=O)N3C[C@@H](F)C[C@H]3C#N)C2)cc2cccnc12 [Example 213, (2S,4S)-4-fluoro-1-[2-[(3R)-3-[(8-methyl-6-quinolyl)amino]pyrrolidin-1-yl]acetyl]pyrrolidine-2-carbonitrile] | 393 | 3020 | 1740 | 1390 | 3.5
N#C[C@@H]1C[C@H](F)CN1C(=O)CN1CC[C@@H](Nc2cc(F)c3ncccc3c2)C1 [Example 214, (2S,4S)-4-fluoro-1-[2-[(3R)-3-[(8-fluoro-6-quinolyl)amino]pyrrolidin-1-yl]acetyl]pyrrolidine-2-carbonitrile] | 764 | 3030 | 1290 | 970 | 3.8
N#C[C@@H]1C[C@H](F)CN1C(=O)CN1CC[C@@H](Nc2cc(C(F)(F)F)c3ncccc3c2)C1 [Example 216, (2S,4S)-4-fluoro-1-[2-[(3R)-3-[[8-(trifluoromethyl)-6-quinolyl]amino]pyrrolidin-1-yl]acetyl]pyrrolidine-2-carbonitrile] | 399 | 2560 | 1350 | 822 | 1.7
CCOc1ccc(N[C@H]2CCN(CC(=O)N3CCC[C@H]3C#N)C2)c2cccnc12 [Example 274, (2S)-1-[2-[(3S)-3-[(8-ethoxy-5-quinolyl)amino]pyrrolidin-1-yl]acetyl]pyrrolidine-2-carbonitrile] | 960 | 14900 | 11000 | 5550 | 4.4
CCOc1ccc(N[C@H]2CCN(CC(=O)N3C[C@@H](F)C[C@H]3C#N)C2)c2cccnc12 [Example 275, (2S,4S)-4-fluoro-1-[2-[(3S)-3-[(8-ethoxy-5-quinolyl)amino]pyrrolidin-1-yl]acetyl]pyrrolidine-2-carbonitrile] | 90.4 | 6120 | 1430 | 1590 | 1.7

Next, values leading:

IC50 (recombinant human DPP7) [nM] | IC50 (recombinant human PREP) [nM] | IC50 (DPP4) [nM] | IC50 (recombinant human DPP9) [nM] | IC50 (Recombinant human FAP) [nM] | SMILES
369 | 2740 | 1800 | 657 | 5.2 | Cc1cnc2ccc(N[C@@H]3CCN(CC(=O)N4C[C@@H](F)C[C@H]4C#N)C3)cc2c1 [Example 211, (2S,4S)-4-fluoro-1-[2-[(3R)-3-[(3-methyl-6-quinolyl)amino]pyrrolidin-1-yl]acetyl]pyrrolidine-2-carbonitrile]
206 | 5230 | 1960 | 1160 | 8 | COc1ccnc2ccc(N[C@@H]3CCN(CC(=O)N4C[C@@H](F)C[C@H]4C#N)C3)cc12 [Example 212, (2S,4S)-4-fluoro-1-[2-[(3R)-3-[(4-methoxy-6-quinolyl)amino]pyrrolidin-1-yl]acetyl]pyrrolidine-2-carbonitrile]
544 | 3150 | 1160 | 631 | 1.5 | N#C[C@@H]1C[C@H](F)CN1C(=O)CN1CC[C@@H](Nc2cc(Cl)c3ncccc3c2)C1 [Example 215, (2S,4S)-4-fluoro-1-[2-[(3R)-3-[(8-chloro-6-quinolyl)amino]pyrrolidin-1-yl]acetyl]pyrrolidine-2-carbonitrile]
3490 | 3030 | 977 | 5330 | 14 | N#C[C@@H]1C[C@H](F)CN1C(=O)CN1CC[C@H](Nc2ccc(O)c3ncccc23)C1 [Example 276, (2S,4S)-4-fluoro-1-[2-[(3S)-3-[(8-hydroxy-5-quinolyl)amino]pyrrolidin-1-yl]acetyl]pyrrolidine-2-carbonitrile]
193 | 1230 | 1040 | 740 | 3 | Cc1cc(N[C@H]2CCN(CC(=O)N3C[C@@H](F)C[C@H]3C#N)C2)cc2cccnc12 [Example 277, (2S,4S)-4-fluoro-1-[2-[(3S)-3-[(8-methyl-6-quinolyl)amino]pyrrolidin-1-yl]acetyl]pyrrolidine-2-carbonitrile]

Reference: US11655235B2, “Pyrrolidine and piperidine compounds” (YUHAN CORPORATION, priority 2019, dated 2023)
